According to US20010006660A1, “LOW-RIGIDITY LIPOSOMAL FORMULATION” (priority 1999, published 2001):

Experiments:
Xanthomonas maltophilia [1] = assay: MIC of clinical strain; assay type: cell-based; details: Stenotrophomonas maltophilia
Xanthomonas maltophilia [2] = assay: In vitro bactericidal activity, viable bacterial counts in proteose peptone; assay type: cell-based; details: free tobramycin 3,12 μg/ml, liposomes entrapped tobramycin 3,08 μg/ml
Protocol: To evaluate the bactericidal efficacy of the liposonal tobramycin formulation produced according to the present invention (DPPC/DMPG), in vitro tests were performed against different clinical strains: […] To culture tubes containing proteose peptone (29 ml) a minimal number of 10^8 CFU of bacteria in logarithmic phase (1 ml) and of one of the following preparations (100 μl) were added at time zero: free tobramycin, control liposomes or PBS. Experiments were done in triplicate. At times 1, 3, 6, and 16 hours following the addition of antibiotic or controls, 2 ml of samples were collected and serial 10-fold dilutions were made and spread in triplicate on proteose peptone agar plates for gram negative strains and on […] for S. aureus. CFU were counted after 24-hour and 48-hourS incubations at 37° C. under 5% CO2. Counts were expressed in log CFU per ml of culture media.

[3] = system: Staphylococcus aureus (strain LSPQ 2499); assay: MIC of clinical strain; assay type: cell-based
[4] = system: Pseudomonas aeruginosa (strain 429); assay: MIC of clinical strain; assay type: cell-based
[5] = system: Pseudomonas aeruginosa PA 508 (mucoid phenotype); assay: Bactericidal activity in rat model of chronic pulmonary infection (agar beads); assay type: in vivo; details: Sprague-Dawley rats
Protocol: To evaluate the bactericidal efficacy of a liposomal aminoglycoside formulation produced according to the present invention, male, pathogen-free, Sprague-Dawley rats weighing 175 to 225 g (Charles River) were used. Chronic infection in lungs was established by intratracheal administration of 5×10^5 CFU of Pseudomonas aeruginosa PA 508 (mucoid phenotype) prepared in agar beads. After 3 days, three doses (600 μg) of free or liposome-encapsulated tobramycin were given intratracheally at intervals of 16 h. The lipid mixture were DPPC:DMPG at a molar ratio of 10:1 (formula no 1) and DPPC:DMPC at a molar ration of 15:1 (formula no 2). Sixteen hours after the last treatment, the animals were sacrificed and the entire lungs were removed aseptically, weighed, and homogeneized as described previously for mice. Serial 10-fold dilutions of the homogenates in cold PBS were made and spread in triplicate on proteose peptone agar plates. Identification of P. aeruginosa was confirmed by specific cultures. CFU were counted after 24 hour incubations at 37° C. under 5% CO^2. Counts were expressed in log CFU per pair of lungs. PBS and PBS-liposomes were used as controls. A second experiment to study the bactericidal effect of the liposomal tobramycin preparation, produced according to the present invention, was carried out as for Table 4 with the following modifications: 1) liposomes were prepared with a 15:1 molar ratio of DPPC:DMPG (formula no. 3); and 2) only two doses of 240 μg of free or liposome-encapsulated tobramycin were administered to the rats.

[6] = system: Escherichia coli (strain 1061 mn 88); assay: MIC of clinical strain; assay type: cell-based
[7] = system: Burkholderia cepacia (strain ID-28369); assay: MIC of clinical strain; assay type: cell-based
[8] = Phase transition / destabilization temperature by differential scan calorimetry; assay type: physicochemical
Protocol: The formulations of liposomes were assessed for their ability to fuse with bacteria. The liposomes were prepared as described above and contained different lipid mixtures. These lipid mixtures were dipalmitoylphosphatidylcholine (DPPC): dimirystoylphosphatidylglycerol (DMPG), DPPC: soybean 1-α-phosphatidylinositol, sodium salt, (PI), and 1,2-di-o-hexadecyl-sn-glycero-3-phosphocholine (DHPC): DMPG. All lipid mixtures were used at ratios of 10:1. PI is negatively charged with a phase transition temperature (Tc) of 23° C., while DHPC is neutral with a Tc of 42° C. All three formulations have a Tc of about 29.5° C. […] The bacterial strain used was Pseudomonas aeruginosa strain 429.
Different tobramycin-encapsulated liposomal formulations were prepared according to Example 1 and analyzed by differential scan colorimetry. Using differential scan calorimetry, the temperatures of phase transition (TC) were calculated for the tobramycin-liposomal formulations listed in Table 2. All these formulations were then listed in vitro to assess the antibiotic kinetics of liberation from the liposomes. In addition, these formulations were tested in a non-infected mouse model as previously described (Omri et al. 1994, Antimicrob. Agents Chemother. 38:1090-1095) to assess the persistence of the liposomes in the lung.

[9] = two doses of 240 μg intratracheally, '<significant count' = none or only rare cfu (0 to 6) on plates

Compound: NC[C@H]1O[C@H](O[C@H]2[C@H](O)[C@@H](O[C@H]3O[C@H](CO)[C@@H](O)[C@H](N)[C@H]3O)[C@H](N)C[C@@H]2N)[C@H](N)C[C@@H]1O [Free tobramycin, tobramycin]
- MIC (Xanthomonas maltophilia [1]): > 5 µg/mL
- Viable bacterial counts (cfu) (Xanthomonas maltophilia [2]; 0 h): 3,7 × 10^10 cfu
- Viable bacterial counts (cfu) (Xanthomonas maltophilia [2]; 1 h after addition): 3,00 × 10^12 cfu
- Viable bacterial counts (cfu) (Xanthomonas maltophilia [2]; 3 h after addition): 8,20 × 10^14 cfu
- Viable bacterial counts (cfu) (Xanthomonas maltophilia [2]; 6 h after addition): 7,80 × 10^16 cfu
- Viable bacterial counts (cfu) (Xanthomonas maltophilia [2]; 16 h after addition): 8,57 × 10^18 cfu
- MIC [3]: ≥ 9 µg/mL
- MIC [4]: ≥ 60 µg/mL
- log cfu/pair of lungs ([5]; three doses (600 μg) intratracheally at intervals of 16 h, '<significant count' = none or only rare cfu (0 to 4) on plates): 7.10 log cfu/pair of lungs
- cfu/pair of lungs ([5]; three doses (600 μg) intratracheally at intervals of 16 h, '<significant count' = none or only rare cfu (0 to 4) on plates, counts <30 not statistically significant): 1.25 × 10^7 cfu/pair of lungs
- cfu/pair of lungs [5, 9]: 1.07 × 10^6 cfu/pair of lungs
- log cfu/pair of lungs [5, 9]: 6.03 log cfu/pair of lungs
- MIC [6]: ≥ 5 µg/mL
- MIC [7]: ≥ 27 µg/mL

Compound: CCCCCCCCCCCCCCCCOC[C@H](COP(=O)([O-])OCC[N+](C)(C)C)OCCCCCCCCCCCCCCCC [DHPC, 1,2-di-o-hexadecyl-sn-glycero-3-phosphocholine]
- phase transition temperature (Tc) [8]: 42 °C

Compound: soybean 1-α-phosphatidylinositol, sodium salt [PI]
- phase transition temperature (Tc) [8]: 23 °C
